# Assay results taken from patent publication EP1147102B1, “HETEROARYL ACETYLENIC SULFONAMIDE AND PHOSPHINIC ACID AMIDE HYDROXAMIC ACID TACE INHIBITORS” (Wyeth Holdings Corporation, priority 1999, dated 2000).
# Test system: THP-1 cells
# Experiment: Human monocytic THP-1 cell differentiation assay for soluble proteins (THP soluble protein assay)
# Type: cell-based
# Conditions: LPS-stimulated THP-1 cells
# Source text: Mitogenic stimulation of THP-1 cells cause differentiation into macrophage like cells with concomitant secretion of tumor necrosis factor (TNF-α) and TNF receptor (TNF-R p75/80 and TNF-R p55/60) and Interleukin-8 (IL-8), among other proteins. In addition, non-stimulated THP-1 cells shed both the p75/80 and the p55/60 receptors over time. The release of membrane bound TNF-α and possibly TNF-R p75/80 and TNF-R p55/60, but not IL-8, is mediated by an enzyme called TNF-α converting enzyme or TACE.
# THP-1 cells (from ATCC) are a human monocytic cell line which were obtained from the peripheral blood of a person with acute monocytic leukemia. […]
# To perform an assay, the THP-1 cells are co-incubated in a 24 well plate with […] of a 24 mg/ml stock of Lipopolysacharide (LPS) (Calbiochem Lot# B13189) at 37°C in 5% CO2 at a concentration of 1.091 x 10^6 cells/ml (1.1 ml/well) for a total of 24 hours. […] Compounds can be evaluated for their effect on basal (non-stimulated) shedding of the receptors by replacing the LPS with […] of THP-1 media. […]
# In addition, at the 24 hours timepoint, and the cells for each treatment group are collected by resuspension in 500 µl/well of THP-1 media and transferred into a FACS tube. […] The samples are run on a Becton Dickinson FaxCaliber FLOW cytometry machine and the amount of dye taken up by each cell is measured in the high red wavelength (FL3). […]
smiles,measurement,value
"CC#CCOc1ccc(S(=O)(=O)N(C)c2c(C(=O)NO)cc(OC)nc2OC)cc1 [Example 33, 3-[Methyl-(4-but-2-ynyloxy-benzenesulfonyl)-amino]-N-hydroxy-2,6-dimethoxyisonicotinamide]",inhibition at 3 µM,31%
